In ChEMBL document CHEMBL5154688, “Design, Synthesis, and Characterization of I-BET567, a Pan-Bromodomain and Extra Terminal (BET) Bromodomain Oral Candidate” (J Med Chem, 2022):

Columns and labels:
[1] = molecular target: T1, Bromodomain testis-specific protein (Homo sapiens, UniProt Q58F21); experiment: Binding affinity to BRDT BD1 (unknown origin) assessed as dissociation constant
[2] = Antineoplastic activity against human NMC 11060 cells xenografted in SCID mouse assessed as reduction in tumor volume at 3 to 30 mg/kg, po for 20 days; type: functional, NUT midline carcinoma; set-up: scale not given: the % may be the effect or the level left; details: dose 3-30 mg/kg, time 20 day
[3] = Intrinsic clearance in rat hepatocytes after 60 mins by LC-MS/MS analysis; type: ADME, cell-based, Hepatocyte; details: 1 h
[4] = Renal clearance in Beagle dog at 3 mg/kg, po or 1.0 mg/kg, iv by LC-MS/MS analysis; type: ADME, organism-based, Canis lupus familiaris; details: in vivo
[5] = Terminal half life in Wistar Han rat blood at 3 mg/kg, po or 1.3 mg/kg, iv measured upto 24 hrs by LC-MS/MS analysis; type: ADME, organism-based; details: read-out: beta t1/2 (converted)
[6] = Intrinsic clearance in human hepatocytes measured after 120 mins by LC-MS/MS analysis; type: ADME, cell-based, Hepatocyte; details: 2 h
[7] = Intrinsic clearance in dog hepatocytes incubated upto 45 mins by LC-MS/MS analysis; type: ADME, cell-based, Canis lupus familiaris, Hepatocyte; details: 0.75 h
[8] = AUC(0 to 72 hrs) in KLH-TNP-induced T-cell dependent immunization CD-1 mouse model at 30 mg/kg, po administered every other day for 14 days; type: ADME, organism-based; set-up: dose 30 mg/kg, time 14 day, route po; details: in vivo
[9] = Cmax in KLH-TNP-induced T-cell dependent immunization CD-1 mouse model at 30 mg/kg, po administered daily for 14 days; type: ADME, organism-based; set-up: time 14 day, dose 30 mg/kg, route po; details: in vivo
Cytochrome P450 3A4 = Cytochrome P450 3A4 (Homo sapiens, UniProt P08684); experiment: Inhibition of CYP3A4 (unknown origin); type: ADME
[10] = Toxicity in SCID mouse xenografted with human NMC 11060 cells assessed as tolerability at 3 to 30 mg/kg, po for 20 days; type: organism-based; details: in vivo, 480 h, dose 3-30 mg/kg, time 20 day
[11] = Antineoplastic activity against human NMC 11060 cells xenografted in SCID mouse assessed as reduction in tumor volume at 30 mg/kg, po for 20 days measured at 8 days of post randomization relative to control; type: functional; details: NMC 11060 cell, 480 h, time 20 day
[12] = Renal clearance in Beagle dog assessed as ratio/proportion of renal elimination to total clearance at 3 mg/kg, po or 1 mg/kg, iv by LC-MS/MS analysis; type: ADME, organism-based, Canis lupus familiaris; details: in vivo
[13] = Unbound volume of distribution at steady state in Beagle dog blood at 3 mg/kg, po or 1.0 mg/kg, iv by LC-MS/MS analysis; type: ADME, organism-based, Canis lupus familiaris; details: in vivo
[14] = Antineoplastic activity against human NMC 11060 cells xenografted in SCID mouse assessed as reduction in tumor volume at 10 mg/kg, po for 20 days measured at 20 days of post randomization relative to control; type: functional; details: NMC 11060 cell, 480 h, time 20 day
[15] = Artificial membrane permeability of the compound; type: ADME; details: PAMPA; read-out: permeability
[16] = Volume of distribution at steady state in Beagle dog blood at 3 mg/kg, po or 1.0 mg/kg, iv by LC-MS/MS analysis; type: ADME, organism-based, Canis lupus familiaris; details: in vivo
[17] = molecular target: T2, Bromodomain-containing protein 4 (Homo sapiens, UniProt O60885); experiment: Inhibition of BRD4 BD2 (unknown origin) incubated for 30 mins in presence of fluorescent ligand by TR-FRET method
[18] = Renal clearance in Wistar Han rat assessed as ratio/proportion of renal elimination to total clearance at 3 mg/kg, po or 1.3 mg/kg, iv measured upto 24 hrs by LC-MS/MS analysis; type: ADME, organism-based; details: in vivo
[19] = Antineoplastic activity against human NMC 11060 cells xenografted in SCID mouse assessed as reduction in tumor volume at 10 mg/kg, po for 20 days measured at 3 days of post randomization relative to control; type: functional; details: NMC 11060 cell, 480 h, time 20 day
[20] = molecular target: T1, Bromodomain testis-specific protein; experiment: Binding affinity to BRDT BD2 (unknown origin) assessed as dissociation constant
[21] = Unbound clearance in Wistar Han rat blood at 3 mg/kg, po or 1.3 mg/kg, iv measured upto 24 hrs by LC-MS/MS analysis; type: ADME, organism-based; details: in vivo
[22] = Antineoplastic activity against human NMC 11060 cells xenografted in SCID mouse assessed as reduction in tumor volume at 30 mg/kg, po for 20 days measured at 13 days of post randomization relative to control; type: functional; details: NMC 11060 cell, 480 h, time 20 day
[23] = Antineoplastic activity against human NMC 11060 cells xenografted in SCID mouse assessed as reduction in tumor volume at 30 mg/kg, po for 20 days measured at 6 days of post randomization relative to control; type: functional; details: NMC 11060 cell, 480 h, time 20 day
[24] = Cmax in KLH-TNP-induced T-cell dependent immunization CD-1 mouse model at 30 mg/kg, po administered every other day for 14 days; type: ADME, organism-based; set-up: dose 30 mg/kg, time 14 day, route po; details: in vivo
[25] = Unbound Cmax in SCID mouse xenografted with human NMC 11060 cells at 3 to 30 mg/kg, po for 20 days; type: ADME, organism-based; details: in vivo, 480 h, dose 3-30 mg/kg, time 20 day
[26] = Antineoplastic activity against human NMC 11060 cells xenografted in SCID mouse assessed as reduction in tumor volume at 30 mg/kg, po for 20 days measured at 10 days of post randomization relative to control; type: functional; details: NMC 11060 cell, 480 h, time 20 day
[27] = AUC(0 to 72 hrs) in KLH-TNP-induced T-cell dependent immunization CD-1 mouse model at 30 mg/kg, po administered daily for 14 days; type: ADME, organism-based; set-up: dose 30 mg/kg, time 14 day, route po; details: in vivo
[28] = Cmax in KLH-TNP-induced T-cell dependent immunization CD-1 mouse model at 30 mg/kg, po administered every third day for 14 days; type: ADME, organism-based; set-up: time 14 day, dose 30 mg/kg, route po; details: in vivo
[29] = Unbound clearance in Beagle dog blood at 3 mg/kg, po or 1.0 mg/kg, iv by LC-MS/MS analysis; type: ADME, organism-based, Canis lupus familiaris; details: in vivo
[30] = Antineoplastic activity against human NMC 11060 cells xenografted in SCID mouse assessed as reduction in tumor volume at 10 mg/kg, po for 20 days measured at 8 days of post randomization relative to control; type: functional; details: NMC 11060 cell, 480 h, time 20 day
[31] = molecular target: T2, Bromodomain-containing protein 4; experiment: Binding affinity to BRD4 BD2 (unknown origin) assessed as dissociation constant

Sequence of Cytochrome P450 3A4 (P08684 whole entry): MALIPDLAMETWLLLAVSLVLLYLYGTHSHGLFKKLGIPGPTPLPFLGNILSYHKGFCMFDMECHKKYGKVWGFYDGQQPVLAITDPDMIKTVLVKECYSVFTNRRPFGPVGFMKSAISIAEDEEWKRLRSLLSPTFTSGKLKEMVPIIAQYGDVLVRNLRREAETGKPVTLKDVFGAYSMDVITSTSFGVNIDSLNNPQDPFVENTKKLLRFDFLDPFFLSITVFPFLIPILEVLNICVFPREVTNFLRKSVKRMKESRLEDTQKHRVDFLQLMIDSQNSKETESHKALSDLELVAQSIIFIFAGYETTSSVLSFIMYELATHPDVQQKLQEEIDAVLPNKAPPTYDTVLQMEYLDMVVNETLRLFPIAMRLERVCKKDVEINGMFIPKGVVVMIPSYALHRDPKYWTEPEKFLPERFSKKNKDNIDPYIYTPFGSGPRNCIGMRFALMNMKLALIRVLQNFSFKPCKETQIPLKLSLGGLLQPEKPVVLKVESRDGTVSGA

CC(=O)N1c2ccc(C(N)=O)cc2[C@H](Nc2ncc(Cl)cn2)C[C@@H]1C
Kd [1]: 25.1 nM | Activity [2]: >50% | CLH [3]: < 0.8 mL/min/g | CL renal [4]: 6.9 mL/min/kg | half-life [5]: 1.6 h | CLH [6]: < 0.87 mL/min/g | CLH [7]: < 1.26 mL/min/g | AUC at 336 h [8]: 69 µM·h | Cmax [9]: 8.5 µM | IC50 (Cytochrome P450 3A4): > 39800 nM | Activity [10]: Non-Toxic | inhibition in vivo at 30 mg/kg [11]: 85% | Ratio [12]: 85% | Vduss [13]: 2.9 L/kg | inhibition in vivo at 10 mg/kg [14]: 51% | Papp [15]: 6.8 ×10⁻⁶ cm/s | Vdss [16]: 1.2 L/kg | IC50 [17]: 63.1 nM | Ratio [18]: 28% | inhibition in vivo at 10 mg/kg [19]: 45% | Kd [20]: 25.1 nM | CL free [21]: 109 mL/min/kg | inhibition in vivo at 30 mg/kg [22]: 88% | inhibition in vivo at 30 mg/kg [23]: 70% | Cmax [24]: 8.5 µM | fCmax [25]: 2 µM | inhibition in vivo at 30 mg/kg [26]: 83% | AUC at 336 h [27]: 103 µM·h | Cmax [28]: 8.5 µM | CL free [29]: 20 mL/min/kg | inhibition in vivo at 10 mg/kg [30]: 62% | Kd [31]: 5.01 nM
